In this test the target is T1, chicken gizzard smooth muscle myosin subfragment-1 chemically crosslinked to cardiac or skeletal actin (Gallus gallus, UniProt P10587).
T1 construct: chicken gizzard smooth muscle myosin subfragment-1; from tissue; host or cells: chicken gizzard
T1 sequence (P02607 2-151): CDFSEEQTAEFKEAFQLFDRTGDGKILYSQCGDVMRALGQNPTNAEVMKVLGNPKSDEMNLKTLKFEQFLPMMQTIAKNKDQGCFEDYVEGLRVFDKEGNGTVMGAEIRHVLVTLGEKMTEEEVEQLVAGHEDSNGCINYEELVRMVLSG
T1 sequence (P10587 84-789): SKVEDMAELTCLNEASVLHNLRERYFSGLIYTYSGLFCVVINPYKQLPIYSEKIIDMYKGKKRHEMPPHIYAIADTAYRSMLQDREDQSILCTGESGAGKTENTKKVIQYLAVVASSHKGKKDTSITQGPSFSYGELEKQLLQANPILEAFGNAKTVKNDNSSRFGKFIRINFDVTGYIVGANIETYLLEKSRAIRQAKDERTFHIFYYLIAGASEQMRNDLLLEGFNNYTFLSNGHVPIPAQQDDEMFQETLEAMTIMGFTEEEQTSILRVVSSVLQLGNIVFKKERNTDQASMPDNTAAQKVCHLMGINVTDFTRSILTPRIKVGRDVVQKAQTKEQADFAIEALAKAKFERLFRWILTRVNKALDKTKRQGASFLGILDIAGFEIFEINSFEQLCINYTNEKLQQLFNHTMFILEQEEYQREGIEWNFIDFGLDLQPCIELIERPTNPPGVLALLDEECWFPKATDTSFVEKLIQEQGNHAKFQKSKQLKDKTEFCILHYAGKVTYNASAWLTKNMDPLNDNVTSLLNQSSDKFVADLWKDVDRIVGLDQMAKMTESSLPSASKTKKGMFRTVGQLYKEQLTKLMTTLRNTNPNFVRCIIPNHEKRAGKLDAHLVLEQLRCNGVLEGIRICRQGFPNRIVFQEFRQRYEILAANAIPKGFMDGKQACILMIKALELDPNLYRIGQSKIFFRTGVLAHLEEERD
In words: Smooth muscle myosin ATPase dose response assay (pyruvate kinase/horseradish peroxidase/pyruvate oxidase-coupled, amplex red fluorescence). Type of test: biochemical. Conditions: read-out: IC50 Arithmetic Mean. The gist of the method: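 EDC/NHS-crosslinked S1–actin, amount set per prep by rate titration. Buffer: 12 mM K-PIPES pH 7.00 (22° C), 100 mM KCl, 2 mM MgCl2, 0.15 mM ATP, 0.1 mM PEP, 2 mM KPi, 0.1 mM amplex red. Read ex 480/em 615 nm; IC50 = midpoint, 4-param Hill fit.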
`C[C@H](CNC(=O)c1cc(F)c(-c2cnn(C)c2)nc1NCCc1cccc(F)c1)NS(C)(=O)=O` [N-{(2R)-2-[(methylsulfonyl)amino]propyl}(5-fluoro-2-{[2-(3-fluorophenyl)ethyl]amino}-6-(1-methylpyrazol-4-yl)(3-pyridyl))carboxamide]: the IC50 was 1 µM.
For `C[C@H](CNC(=O)c1ccc(-c2ccccc2C#N)nc1NCCc1cccc(F)c1)NS(C)(=O)=O` [N-{(2R)-2-[(methylsulfonyl)amino]propyl}(6-(2-cyanophenyl)-2-{[2-(3-fluorophenyl)ethyl]amino}(3-pyridyl))carboxamide] the value was 1.33 µM; for `C[C@H](CNC(=O)c1cc(F)c(-c2cn[nH]c2)nc1NCCc1cccc(F)c1)NC(=O)OC(C)(C)C` [N-{(2R)-2-[(tert-butoxy)carbonylamino]propyl}(5-fluoro-2-{[2-(3-fluorophenyl)ethyl]amino}-6-pyrazol-4-yl(3-pyridyl))carboxamide], 8.21 µM.
As for `C[C@H](CNC(=O)c1ccc(-c2ccccc2C#N)nc1NCCc1cccc(F)c1)N(C)S(C)(=O)=O` [N-{(2R)-2-[methyl(methylsulfonyl)amino]propyl}(6-(2-cyanophenyl)-2-{[2-(3-fluorophenyl)ethyl]amino}(3-pyridyl))carboxamide], the IC50 worked out at 7.07 µM.
For the compound `C[C@@H](CNC(=O)CNC(=O)OC(C)(C)C)CNC(=O)c1cc(F)c(-c2cnn(C)c2)nc1NCCc1cccc(F)c1` [N-{(2R)-3-[(5-fluoro-2-{[2-(3-fluorophenyl)ethyl]amino}-6-(1-methylpyrazol-4-yl)(3-pyridyl))carbonylamino]-2-methylpropyl}-2-[(tert-butoxy)carbonylamino]acetamide], the IC50 came to 0.373 µM.
For `C[C@@H](CNC(=O)CN)CNC(=O)c1cc(F)c(-c2cnn(C)c2)nc1NCCc1cccc(F)c1` [N-{(2R)-3-[(5-fluoro-2-{[2-(3-fluorophenyl)ethyl]amino}-6-(1-methylpyrazol-4-yl)(3-pyridyl))carbonylamino]-2-methylpropyl}-2-aminoacetamide], the IC50 came out at 0.152 µM.
For `C[C@@H](CNC(=O)CO)CNC(=O)c1cc(F)c(-c2cnn(C)c2)nc1NCCc1cccc(F)c1` [N-{(2R)-3-[(5-fluoro-2-{[2-(3-fluorophenyl)ethyl]amino}-6-(1-methylpyrazol-4-yl)(3-pyridyl))carbonylamino]-2-methylpropyl}-2-hydroxyacetamide], the IC50 worked out at 0.105 µM.
For `C[C@@H](CNC(=O)c1ccc(-c2ccccc2C#N)nc1NCCc1cccc(F)c1)NS(C)(=O)=O` [N-{(2S)-2-[(methylsulfonyl)amino]propyl}(6-(2-cyanophenyl)-2-{[2-(3-fluorophenyl)ethyl]amino}(3-pyridyl))carboxamide], the IC50 is 1.21 µM.
For `C[C@@H](CNC(=O)c1ccc(-c2ccccc2C#N)nc1NCCc1cccc(F)c1)N(C)S(C)(=O)=O` [N-{(2S)-2-[methyl(methylsulfonyl)amino]propyl}(6-(2-cyanophenyl)-2-{[2-(3-fluorophenyl)ethyl]amino}(3-pyridyl))carboxamide] the value was 5.84 µM.
Turning to `N#Cc1ccccc1-c1ccc(C(=O)N[C@H](CCCNC(=O)OCc2ccccc2)C(N)=O)c(NCCc2cccc(F)c2)n1` [N-{(4R)-4-carbamoyl-4-[(6-(2-cyanophenyl)-2-{[2-(3-fluorophenyl)ethyl]amino}(3-pyridyl))carbonylamino]butyl}(phenylmethoxy)carboxamide], the IC50 came to 19.6 µM.
For `N#Cc1ccccc1-c1ccc(C(=O)NCC2CCN(C(=O)CN)CC2)c(NCCc2cccc(F)c2)n1` [N-{[1-(2-aminoacetyl)(4-piperidyl)]methyl}(6-(2-cyanophenyl)-2-{[2-(3-fluorophenyl)ethyl]amino}(3-pyridyl))carboxamide] the value was 0.572 µM.
Consider `N#Cc1ccccc1-c1ccc(C(=O)NCC2CCCCCN2C(=O)CN)c(NCCc2cccc(F)c2)n1` (stereo not drawn) [N-{[1-(2-aminoacetyl)azaperhydroepin-2-yl]methyl}(6-(2-cyanophenyl)-2-{[2-(3-fluorophenyl)ethyl]amino}(3-pyridyl))carboxamide], for which the IC50 was determined as 0.248 µM.

These data come from patent US7932270B2 (Cytokinetics, Inc., priority 2006, dated 2011).
